Measurements from PMC12371494, “Discovery of YTHDF2 Ligands by Fragment-Based Design” (ACS Bio & Med Chem Au, 2025).
Like-named read-outs stand apart in the source and are kept apart here.

Legend:
GST-YTHDF3 = biological target: T1, GST-YTHDF3 (Homo sapiens, UniProt Q7Z739); assay: HTRF-based binding assay, DF3; conditions: for Single-dose residual signal at 100 µM, DF3: 100 µM compound, normalized; for IC50: dose-response
T1 construct: made in house
T1 sequence (Q7Z739 1-585): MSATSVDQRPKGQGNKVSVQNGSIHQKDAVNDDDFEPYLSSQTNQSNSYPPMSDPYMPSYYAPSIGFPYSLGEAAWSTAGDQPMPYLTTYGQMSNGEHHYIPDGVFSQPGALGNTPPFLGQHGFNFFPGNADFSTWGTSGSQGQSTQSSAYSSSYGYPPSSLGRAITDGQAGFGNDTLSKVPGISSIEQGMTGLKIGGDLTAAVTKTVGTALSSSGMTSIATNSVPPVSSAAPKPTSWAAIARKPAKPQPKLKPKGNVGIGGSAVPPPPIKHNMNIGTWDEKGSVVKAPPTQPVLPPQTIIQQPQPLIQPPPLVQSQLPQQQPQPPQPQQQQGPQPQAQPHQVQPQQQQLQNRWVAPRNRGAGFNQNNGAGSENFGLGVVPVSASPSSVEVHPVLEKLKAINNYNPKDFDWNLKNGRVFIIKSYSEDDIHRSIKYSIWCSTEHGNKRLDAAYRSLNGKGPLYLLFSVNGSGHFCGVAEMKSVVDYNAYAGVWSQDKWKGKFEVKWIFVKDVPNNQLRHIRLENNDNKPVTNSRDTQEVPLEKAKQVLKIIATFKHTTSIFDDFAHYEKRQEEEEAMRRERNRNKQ
Description: The HTRF-based assay was employed to evaluate the selectivity of the series against other DF proteins.
A dose–response experiment on DF1 and DF3 was conducted for compounds 17, 18, 23, and 27 (Figure S5). Compounds 17, 18, and 27 are active on three DF proteins. […] In contrast, compound 23 is selective for DF2, with residual signals (at the highest employed concentration of 62.5 μM) of 51 and 87% for DF1 and DF3, respectively.
GST-YTHDC1, GST-YTHDF1, GST-YTHDF2, and GST-YTHDF3 were purified as previously reported. The HTRF assay was assembled as detailed in ref with the only difference being that the starting concentration of the dose–response experiments used for the IC50 determination was variated dependently from the tested compound. The same protocol was applied to the four proteins. The competitive inhibition data of GST-YTHDF1 (single dose experiment at 100 μM compound concentration and dose–response curves), GST-YTHDF3 (single dose experiment at 100 μM compound concentration and dose–response curves), and GST-YTHDF2 (single dose experiment at 100 μM compound concentration) were normalized as described in ref to mitigate interference. The signal was measured as described in ref .

YTHDC1 = YTHDC1 (Homo sapiens, UniProt Q96MU7); assay: DNA-fluorescence polarization (FP) competition assay, DC1; type: binding; conditions: for Selectivity DF2 over DC1 (Kd ratio DC1/DF2): FP Kd values
Description: The binding affinity for DC1 could not be evaluated by HTRF because of interference of the compounds with the assay, which has a smaller assay window when performed with DC1 compared to the DF proteins. Thus, the FP assay was used to evaluate binding to DC1 and DC2.
(§1) For fluorescence polarization (FP) experiments, a 5′-fluorescein-labeled m^6A-DNA probe (5′-FAM-[…](m6A)-CTAAGCT-3′) was synthesized by Microsynth AG.
(§2) The final concentration of the fluorescein-labeled DNA was kept constant at 3 nM. For YTHDC2 measurements, the protein concentration was set to 25 nM, while for YTHDF2 measurements, it was set to 10 nM, and for YTHDC1, it was set at 15 nM. The compound concentration was serially diluted to obtain the dose–response curve. The competition experiments were conducted in a final volume of 20 μL in a buffer containing 20 mM Tris–HCl (pH 7.4), 150 mM NaCl, and 0.01% bovine serum albumin (BSA), using a 384-well black flat-bottomed microplate (Corning 3575).
(§3) After incubating the mixture for 1 h, the anisotropy values were measured using a Tecan SPARK plate reader with 485/20 nm excitation and 535/25 nm emission polarization filters, suitable for fluorescein, at 25 °C. To obtain the equilibrium dissociation constant (K d), the IC50 values were first derived by fitting a dose–response curve to the data using nonlinear regression analysis in GraphPad Prism. These IC50 values were then converted to K d by using the Cheng–Prusoff equation: Kd=IC50/1+[L]/Kdprobe
(§4) IC50 is the observed value from FP assay, [L] is the probe concentration used, and K d ^probe is the binding affinity of probe for the target.

YTHDF2 = biological target: T2, YTHDF2 (Homo sapiens, UniProt Q9Y5A9); assay: DNA-fluorescence polarization (FP) competition assay, DF2; type: binding
T2 sequence (Q9Y5A9 1-579): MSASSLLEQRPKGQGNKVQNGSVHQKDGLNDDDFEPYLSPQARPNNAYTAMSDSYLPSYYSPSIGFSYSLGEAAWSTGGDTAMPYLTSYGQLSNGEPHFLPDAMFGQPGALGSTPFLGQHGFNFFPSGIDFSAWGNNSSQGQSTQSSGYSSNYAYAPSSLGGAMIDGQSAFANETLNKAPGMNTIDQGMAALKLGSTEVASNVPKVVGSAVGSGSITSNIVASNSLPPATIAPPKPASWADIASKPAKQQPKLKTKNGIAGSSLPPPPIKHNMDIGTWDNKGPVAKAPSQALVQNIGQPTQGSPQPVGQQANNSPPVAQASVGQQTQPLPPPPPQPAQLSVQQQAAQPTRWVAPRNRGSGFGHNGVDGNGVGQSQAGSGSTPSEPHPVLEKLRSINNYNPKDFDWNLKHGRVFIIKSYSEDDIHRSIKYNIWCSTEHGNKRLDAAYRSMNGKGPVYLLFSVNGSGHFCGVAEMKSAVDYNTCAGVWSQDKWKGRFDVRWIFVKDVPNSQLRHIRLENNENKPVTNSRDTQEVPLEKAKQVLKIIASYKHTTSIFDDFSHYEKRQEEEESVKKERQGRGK
Description: An FP competition assay was used to further validate the binding of the compounds to DF2. The main difference with respect to a previously published FP assay is the use of an oligo-DNA as competitor ligand (see Materials and Methods section). […] These differences might originate from the varying conditions in the two assays, such as the competitor mRNA (5′-biotin-[…](m6A)-CUAAGCU-3′) in HTRF and DNA (5′-FAM-[…](m6A)-CTAAGCT-3′) in FP, the salt concentration (150 mM NaCl and 100 mM KF in HTRF, and 150 mM NaCl in FP), and the pH (7.5 in HTRF and 7.4 in FP). The FP-based assay was also employed to assess the selectivity against DC1 and DC2 (see Selectivity section).
as §1, §2, §3, §4

[1] = Cheng-Prusoff from FP IC50, probe Kd 5 nM, two biological replicates

Single-dose residual signal at 100 µM, DF3 (GST-YTHDF3; HTRF)	Kd (YTHDC1)	Kd (YTHDF2)	IC50 (YTHDF2; FP IC50 before conversion (Kd = IC50/1.6))	Kd (YTHDF2; [1])	Selectivity DF2 over DC1 (Kd ratio DC1/DF2) (YTHDC1)	IC50 (GST-YTHDF3)	Residual signal DF3 at highest concentration (GST-YTHDF3; HTRF, 62.5 μM compound)	SMILES
13%	27 µM	1.3 µM	2 µM					O=c1[nH]c(=S)[nH]c2scc(-c3ccc(O)cc3)c12 [Compound 19]
34%				10 µM				O=C(O)c1csc2[nH]c(=S)[nH]c(=O)c12 [Compound S90]
18%	92 µM	10 µM						Cc1c(C(=O)NCc2ccccc2)sc2[nH]c(=S)[nH]c(=O)c12 [Compound 22]
23%	32 µM	3.8 µM			~8 fold			O=c1[nH]c(=S)[nH]c2sccc12 [Compound 14]
12%	47 µM	3.1 µM						CC(=O)c1sc2[nH]c(=S)[nH]c(=O)c2c1C [Compound 20]
10%	36 µM	4.4 µM						CCOC(=O)c1sc2[nH]c(=S)[nH]c(=O)c2c1C [Compound 21]
26%	32 µM	1.3 µM						Cc1c(C(=O)NCCCC(=O)O)sc2[nH]c(=S)[nH]c(=O)c12 [Compound 25]
35%				6.2 µM				O=c1[nH]c(=S)[nH]c2sc(Cc3ccccc3)cc12 [Compound S85]
36%	40 µM	1.9 µM						NC(=O)c1csc2[nH]c(=S)[nH]c(=O)c12 [Compound 31]
5%	14 µM	1.9 µM				50 µM		Cc1c(-c2ccc(N)cc2)sc2[nH]c(=S)[nH]c(=O)c12 [Compound 27]
19%	6.9 µM	0.61 µM				53 µM		O=C(O)c1ccc(-c2csc3[nH]c(=S)[nH]c(=O)c23)cc1 [Compound 18]
35%				5.6 µM				O=c1[nH]c(=S)[nH]c2scc(C3CCCCC3)c12 [Compound S77]
7%	5 µM	1.2 µM				21 µM		COC(=O)c1ccc(-c2csc3[nH]c(=S)[nH]c(=O)c23)cc1 [Compound 17]
33%	120 µM	1.3 µM			~100 fold	> 60 µM	87%	Cc1c(C(=O)NCc2cccnc2)sc2[nH]c(=S)[nH]c(=O)c12 [Compound 23]
12%				11 µM				COc1ccc(-c2csc3[nH]c(=S)[nH]c(=O)c23)cc1 [Compound S76]
8%				8.8 µM				O=c1[nH]c(=S)[nH]c2scc(-c3ccc(Br)cc3)c12 [Compound S75]
16%				7.5 µM				CCOC(=O)c1csc2[nH]c(=S)[nH]c(=O)c12 [Compound S89]
12%	24 µM	2.5 µM						Cc1c(C(=O)NCc2cccc(C(=O)O)c2)sc2[nH]c(=S)[nH]c(=O)c12 [Compound 24]
15%	61 µM	17 µM						Cc1c(-c2ccc([N+](=O)[O-])cc2)sc2[nH]c(=S)[nH]c(=O)c12 [Compound 26]
